The text below walks through data of paper PMC8954382, “A Sub-Micromolar MraYAA Inhibitor with an Aminoribosyl Uridine Structure and a (S,S)-Tartaric Diamide: Synthesis, Biological Evaluation and Molecular Modeling” (Molecules, 2022).

Where two headings read alike, the source gives them in different places. A value given as a limit tells only on which side of the number the result lay.

As usually defined, the IC50 is the concentration that inhibits the measured activity by half.

Assay [1] has as its system Enterococcus faecium ATCC 19434. The experiment in a line: Antibacterial activity, MIC by broth microdilution. The assay is classed as cell-based. Particulars: Gram +. How it is done: (§1) Even if our goal was to improve the MraY inhibitory activity of the reference urea 13, and that was successfully achieved, the antibacterial activity of MraY inhibitors 2–5 was also evaluated against several bacterial strains. Gram-negative (E. coli ATCC 8730, C. freundii ATCC8090 and P. aeruginosa ATCC 27853) and Gram-positive pathogenic bacterial strains (S. aureus ATCC 25923 and E. faecium ATCC 19434), including a methicillin resistant strain (S. aureus MRSA ATCC 43300), were selected as representative of pathogen bacterial diversity. Piperacillin and vancomycin were used as positive controls in the tests. […] Therefore, further optimization of the lipophilic side chain is still required to increase the antibacterial activity by modulating the lipophilicity of the molecule.
(§2) Tests were made according to the procedure described in Reference, following EUCAST (European Committee on Antimicrobial Susceptibility testing)/CLSI (Clinical and Laboratory Standard Institute) recommended procedure. This microtitration plate size allows direct detection of bacterial growth in a relatively small volume, without the use of a spectrophotometer or the addition of dyes. Molecules were solubilized in 100% DMSO (cell culture grade) at 20.48 mg/mL concentration and 40-fold diluted in MHB to reduce DMSO concentration in the antibacterial test, just before utilization. The MHB-diluted solutions were then serially two-fold diluted in MHB, at final concentration ranging from 128 to 1 µg/mL. Bacterial inoculums were prepared for each strain, resuspending isolated colonies from 18 h cultured plates. Equivalents of 0.5 Mac Farland turbidity standard (approximately 1.108 CFU/mL) were prepared in saline solution (NaCl […]) and diluted 200-fold in MBH. The bacterial suspensions were then added to microplates containing the diluted molecules. Microtitration plates were incubated overnight at 37 °C. MICs were determined as the lowest dilution of product showing no visual turbidity.
In general terms: Broth dilution looks for growth in wells or tubes with falling amounts of substance.

Assay [2] relates to Staphylococcus aureus ATCC 25923. Put plainly: Antibacterial activity, MIC by broth microdilution. The assay is classed as cell-based. Conditions: Gram +. How it is done:
as §1, §2

The test system of assay [3] is Staphylococcus aureus MRSA ATCC 43300. Put plainly: Antibacterial activity, MIC by broth microdilution. The assay is classed as cell-based. Particulars: Gram +. Here is the method:
as §1, §2

The test system of assay [4] is Citrobacter freundii ATCC 8090. Put plainly: Antibacterial activity, MIC by broth microdilution. In kind it is cell-based. Conditions: Gram -. How it is done:
as §1, §2

For assay [5], the system named is Escherichia coli ATCC 8730. Put plainly: Antibacterial activity, MIC by broth microdilution. The assay is classed as cell-based. Particulars: Gram -. Here is the method:
as §1, §2

Assay [6] concerns Pseudomonas aeruginosa ATCC 27853. Put plainly: Antibacterial activity, MIC by broth microdilution. Conditions: Gram -. In kind it is cell-based. How it is done:
as §1, §2

Assay [7] addresses T1, MraY transferase purified from Aquifex aeolicus (MraYAA) (Aquifex aeolicus, UniProt O66465).
T1 construct: His tag; made in house
Put plainly: MraYAA transferase inhibition, fluorescence assay with dansylated UDP-MurNAc-pentapeptide. In kind it is biochemical. Conditions: for IC50: inhibition of MraYAA transferase activity, triplicate, repeated at least twice. Here is the method: The inhibitory activity of the synthesized compounds 2, (S,S)-3a, (R,R)-3b, 4 and 5 was evaluated on MraY transferase purified from Aquifex aeolicus (MraYAA), which was prepared as previously described by Chung et al.. Their activity was compared to the inhibitory activity of the unprotected amino precursor 12, urea-containing inhibitor 13 and C- and N-triazole-containing inhibitors 14 and 15 (Figure 4) that we previously synthesized (Table 1). Commercially available tunicamycin from Streptomyces sp. was used as a positive control in the test.
The inhibitory activity of the synthesized compounds 1–5 was determined as described in Reference. The compounds were evaluated on His-tagged MraY transferase purified from Aquifex aeolicus (MraYAA) prepared as previously described by Chung et al.. The assays were performed as previously described by Stachyra et al. in 96-well plates in a total reaction mixture of 100 µL containing 100 mM of Tris-HCl (pH 7.5), 40 mM MgCl2, 150 µM C55-P, 150 mM NaCl, 25 µM dansylated UDP-MurNAc-pentapeptide and 0.4% of n-dodecyl β-D-maltoside. The reaction was initiated by the addition of pure MraYAA enzyme (10 µL, 0.036 mg/mL). Briefly, MraY catalyzed the formation of lipid I, displaying an apolar environment from polar and hydrosoluble dansylated-UDP-MurNAc-pentapeptide. This modification in the environment of the dansyl probe was accompanied by an enhancement (3.4 times) of fluorescence, as well as a shift of the maximum of fluorescence emission spectrum from 560 nm for the dansylated nucleotidic substrate to 530 nm for the dansylated lipid product (see Figure 2 in Stachyra et al.. This property was exploited to develop an HTS assay and to assess MraY activity by using an Enspire fluorescence microplate reader (Perkin-Elmer, Courtaboeuf, France). The fluorescence measurement was read every two minutes at 37 °C, under shaking during 60 min; the excitation wavelength and the emission wavelength were 340 nm and 530 nm, respectively. Experiments were performed in triplicate, and each experiment was repeated at least twice. In each case, the fluorescence of a control sample without enzyme was subtracted, initial velocity was calculated and percent inhibition was deduced. IC50 values were determined from plots of the percent inhibition versus the inhibitor concentration, and data were processed on Excel software.

For assay [8], the system named is six selected bacterial species. On the set-up: method as in PMID 34115086. Particulars: previously reported; ref [32]; cited from earlier work.
The next assay concerns MraY. Particulars: Table 2, known inhibitor, cited from earlier work.

T1 sequence (O66465 whole entry): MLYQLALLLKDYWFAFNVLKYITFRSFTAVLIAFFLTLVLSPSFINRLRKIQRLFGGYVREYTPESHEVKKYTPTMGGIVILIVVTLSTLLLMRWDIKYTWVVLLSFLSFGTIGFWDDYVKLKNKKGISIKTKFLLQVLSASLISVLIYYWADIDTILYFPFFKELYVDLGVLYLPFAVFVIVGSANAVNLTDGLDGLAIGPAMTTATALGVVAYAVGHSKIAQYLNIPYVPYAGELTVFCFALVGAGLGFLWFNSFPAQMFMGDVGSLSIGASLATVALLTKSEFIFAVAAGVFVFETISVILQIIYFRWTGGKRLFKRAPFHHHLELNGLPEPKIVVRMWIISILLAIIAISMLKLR

Regarding `CN[C@H](CC(C)C)C(=O)N[C@H]1C(=O)N[C@@H](CC(N)=O)C(=O)N[C@H]2C(=O)N[C@H]3C(=O)N[C@H](C(=O)N[C@H](C(=O)O)c4cc(O)cc(O)c4-c4cc3ccc4O)[C@H](O)c3ccc(c(Cl)c3)Oc3cc2cc(c3O[C@@H]2O[C@H](CO)[C@@H](O)[C@H](O)[C@H]2O[C@H]2C[C@](C)(N)[C@H](O)[C@H](C)O2)Oc2ccc(cc2Cl)[C@H]1O` [Vancomycin, reference compound], the results for the “CMI” value in [1], in assay [2] and in assay [3] were 0.5 µg/mL, 1 µg/mL and 1 µg/mL, respectively.
For the compound `CCN1CCN(C(=O)N[C@@H](C(=O)N[C@@H]2C(=O)N3[C@@H]2SC(C)(C)[C@@H]3C(=O)O)c2ccccc2)C(=O)C1=O` [Piperacillin, reference compound], the “CMI” value was 4 µg/mL in assay [4]; 4 µg/mL in assay [1]; 4 µg/mL in assay [5]; 8 µg/mL in assay [6]; 4 µg/mL in assay [2]; > 128 µg/mL in assay [3].
In the case of `CCCCCCCCCCNC(=O)NC[C@H](O[C@@H]1O[C@H](CN)[C@@H](O)[C@H]1O)[C@H]1O[C@@H](n2ccc(=O)[nH]c2=O)[C@H](O)[C@@H]1O` [Compound 13, reference compound], the IC50 in [7] was determined as 1930 ± 130 nM. The “CMI” value in assay [4], in [1], in assay [5], in assay [6], in assay [2] and in [3] was > 128 µg/mL each time. Also, the antibacterial activity entry in assay [8] is listed as “does not display antibacterial activity”.
For the compound `CCCCCCCCCCCCCCCCC[C@H]1CN(C)[C@@H]([C@H](O[C@@H]2O[C@H](CN)[C@@H](O)[C@H]2O)[C@H]2O[C@@H](n3ccc(=O)[nH]c3=O)[C@H](O)[C@@H]2O)C(=O)N(C)[C@@H]1C(=O)O` [Carbacaprazamycin], in the assay on MraY (ref [31]), the IC50 was 104 nM.
Regarding `CCCCCCCCCCNC(=O)C(O)C(O)C(=O)NCC(OC1OC(CN)C(O)C1O)C1OC(n2ccc(=O)[nH]c2=O)C(O)C1O` [(R,R)-3b], half-maximal inhibition in assay [7] (IC50) was put at 1380 ± 50 nM. In addition, the “CMI” value in assay [4] was > 128 µg/mL; in assay [1], > 128 µg/mL; in [5], > 128 µg/mL; in assay [6], > 128 µg/mL; in assay [2] it was 128 µg/mL; in assay [3], > 128 µg/mL.
Regarding `CCCCCCCCCCS(=O)(=O)NCC(OC1OC(CN)C(O)C1O)C1OC(n2ccc(=O)[nH]c2=O)C(O)C1O` (stereo not drawn) [Compound 5], half-maximal inhibition in [7] (IC50) required 2910 ± 130 nM. The “CMI” value in assay [4], in [1], in assay [5], in [6], in [2] and in assay [3] was > 128 µg/mL each time.
`CCCCCCCCCCNc1c(NCC(OC2OC(CN)C(O)C2O)C2OC(n3ccc(=O)[nH]c3=O)C(O)C2O)c(=O)c1=O` (stereo not drawn) [Compound 2]: half-maximal inhibition in [7] (IC50) was put at 17970 ± 40 nM. Further, the “CMI” value in [4], in [1], in assay [5], in assay [6], in assay [2] and in assay [3] was > 128 µg/mL throughout.
For `CC(C)C[C@H](NC(=O)[C@@H](NC(=O)N[C@H](C(=O)O)C(C)C)[C@@H]1CCN=C(N)N1)C(=O)NCCCN[C@H](C(=O)O)[C@H](O[C@@H]1O[C@H](CN)[C@@H](O)[C@H]1O)[C@H]1O[C@@H](n2ccc(=O)[nH]c2=O)[C@H](O)[C@@H]1O` [Muraymycin D2], the IC50 with MraY (ref [41]) was 46 nM.
Turning to `NC[C@H](O[C@@H]1O[C@H](CN)[C@@H](O)[C@H]1O)[C@H]1O[C@@H](n2ccc(=O)[nH]c2=O)[C@H](O)[C@@H]1O` [Compound 12, reference compound], half-maximal inhibition in assay [7] (IC50) required 50300 ± 3270 nM.
In assay [7], `CCCCCCCCCCC(=O)NCC(OC1OC(CN)C(O)C1O)C1OC(n2ccc(=O)[nH]c2=O)C(O)C1O` (stereo not drawn) [Compound 4] returned an IC50 of 6490 ± 210 nM. The “CMI” value in [4] is > 128 µg/mL; in assay [1] it was 128 µg/mL; in assay [5], > 128 µg/mL; in assay [6] it was > 128 µg/mL; in assay [2], 128 µg/mL; in assay [3] it was 128 µg/mL.
Compound Tunicamycin [reference compound] returned an IC50 in assay [7] of 26 nM.
`CCCCCCCCCCNC(=O)C(O)C(O)C(=O)NCC(OC1OC(CN)C(O)C1O)C1OC(n2ccc(=O)[nH]c2=O)C(O)C1O` [Compound (S,S)-3a]: in assay [7], 370 ± 10 nM corresponded to half-maximal inhibition (IC50). The “gain in activity (factor) as compared to the reference compound 13 with an urea linker” value in [7] (ratio of MraYAA IC50 values) amounted to 5. Moreover, the “CMI” value in assay [4] was > 128 µg/mL; in assay [1] it was > 128 µg/mL; in [5] it was > 128 µg/mL; in [6] it was > 128 µg/mL; in assay [2] it was 128 µg/mL; in [3], > 128 µg/mL.
